From patent US20250059139A1, “COMPOUNDS FOR TREATMENT OF CANCER” (THE JOHNS HOPKINS UNIVERSITY, priority 2021, published 2025)

Experiments:
[1] = tested on: CWR22-RH human prostate cancer PDXs; experiment: In vivo growth of CWR22-RH xenografts in castrate NSG male mice; conditions: for CWR22-RH Tumor Growth (% inhibition +/− SD): castrate mice treated orally over a 3 week period, 10 mg/kg/d, n = 5/group; for growth inhibitor (GI) activity on CWR22-RH xenografts (SAR summary): in vivo
From the text: Prostate Cancer Models. The source, history, and characteristics of the human prostate cancer cell lines and PDXs used, as well as cell culture conditions for their in vitro maintenance and the in vivo protocol for xenograft growth in triple immune-deficient NSG (i.e. NOD.Cg-PrkdcScidIl2rgtmlWji/Szj), adult (>8 week old) male mice obtained from the Sidney Kimmel Comprehensive Cancer Center (SKCCC) Animal Core Facility are described previously (Isaacs 2013; Brennen et al. JCI Insight. 2021, 6(8):e146827; Zhu et al. Oncogene 2020, 39(45): 6935-6949). Similar information concerning the TRAMP-C2 and B6CaP mouse prostate cancers originating in a C57BL/6J male mice are described previously (Foster et al. Cancer Res. 1997, 57: 3325-3330; Simons et al. Oncotarget. 2019, 10(64):6845-6854). In vitro growth curves were determined as described (Isaacs 2013). In vivo growth response to oral daily TasQ (10 mg/kg/d) of TRAMP-C2 mouse prostate cancers was evaluated in C57BL/6J syngeneic wild type vs. NOX-2 vs. iNOS null male mice obtained from Jackson Laboratory (Bar Harbor, ME). Growth response to oral daily TasQ (10 mg/kg/d) of TRAMP-C2 and B6CaP mouse prostate cancers was also evaluated in S100A9 null C57BL′6J male mice obtained from Dmitry Gabrilovich (Wistar Institute). All lines were mycoplasma negative using the MycoSensor PCR Assay kit (Agilent Technologies) and genetically authenticated within the last 6 months using short tandem repeat profiling conducted by the Johns Hopkins Genetic Resource Core Facility. In vitro growth curves were determined as described (Isaacs 2013). Growth response to daily oral TasQ vs. ESATA-20 (both at 10 mg/kg/d) of Myc-CaP-CR mouse prostate cancer was evaluated in syngeneic FVB/NJ castrate male mice from Jackson Laboratory. Animal studies were conducted according to animal protocols approved by Johns Hopkins Animal Care and Use Committee. Tumor volume measurements were as described previously (id.). In vivo experiments were repeated multiple independent times for each model used with 3-5 mice per treatment grouping.
(§1) Oral Drug treatment. TasQ at the indicated dose was initially dissolved with equal molar 1 N sodium hydroxide. This solution was diluted with sterile water and the mixture stirred for 1 hr. The pH was then adjusted with 1 N HCl to 8.9 and 200 μL given daily via oral gavage.
Due to these combined effects, maximal growth inhibition of CWR22-RH, a castration-resistant prostate cancer patient-derived xenograft (PDX), is obtained as maintenance therapy with oral daily dosing of ≥5 mg/kg/d (FIG. 1). […] Previous studies documented that in vitro treatment of human prostate cancer cells (LNCaP) with 1-10 μM TasQ rapidly (i.e., ≤1 day) induces the transcription of a series of AHR target genes (e.g., Cyp1a1, Cyp1b1, AHRR, TPARP, GDF15) (Olsson 2010). […]

[2] = target: T1, Human Aryl Hydrocarbon Receptor (AHR) (Homo sapiens, UniProt P35869); experiment: Human AHR reporter assay (cell-based  luciferase reporter gene assay); conditions: n = 4 independent assays/analog; read-out: AHR Agonist Response [EC50] (nM +/−SD)
T1 construct: purchased Indigo Biosciences IB06001
T1 sequence (P35869 11-848): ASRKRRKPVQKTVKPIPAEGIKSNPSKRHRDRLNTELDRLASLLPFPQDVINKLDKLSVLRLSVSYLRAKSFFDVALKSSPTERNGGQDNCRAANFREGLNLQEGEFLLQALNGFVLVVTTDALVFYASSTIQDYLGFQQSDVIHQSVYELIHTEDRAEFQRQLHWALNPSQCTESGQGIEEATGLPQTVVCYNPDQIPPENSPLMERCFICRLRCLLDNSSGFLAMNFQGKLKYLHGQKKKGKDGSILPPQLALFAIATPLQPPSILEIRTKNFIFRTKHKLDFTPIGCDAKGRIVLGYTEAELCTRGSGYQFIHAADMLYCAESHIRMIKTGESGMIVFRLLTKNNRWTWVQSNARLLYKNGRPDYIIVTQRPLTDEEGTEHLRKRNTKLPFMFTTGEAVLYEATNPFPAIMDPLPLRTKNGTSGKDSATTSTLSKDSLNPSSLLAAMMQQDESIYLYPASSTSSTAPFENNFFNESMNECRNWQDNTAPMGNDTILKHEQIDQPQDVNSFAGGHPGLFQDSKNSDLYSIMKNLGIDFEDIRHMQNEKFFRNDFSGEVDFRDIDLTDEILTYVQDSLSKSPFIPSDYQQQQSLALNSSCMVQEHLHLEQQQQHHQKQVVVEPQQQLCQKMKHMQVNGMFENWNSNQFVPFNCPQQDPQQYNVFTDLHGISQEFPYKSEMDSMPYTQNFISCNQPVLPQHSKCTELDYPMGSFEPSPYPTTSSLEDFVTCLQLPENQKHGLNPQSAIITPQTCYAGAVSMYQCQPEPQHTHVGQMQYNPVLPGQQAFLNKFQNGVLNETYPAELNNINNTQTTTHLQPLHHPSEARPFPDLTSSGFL

[3] = tested on: LvCaP-3 human prostate cancer PDXs; experiment: In vivo growth of LvCaP-3 xenografts in castrate hosts; conditions: daily oral 10 mg/kg
From the text: Prostate Cancer Models. The source, history, and characteristics of the human prostate cancer cell lines and PDXs used, as well as cell culture conditions for their in vitro maintenance and the in vivo protocol for xenograft growth in triple immune-deficient NSG (i.e. NOD.Cg-PrkdcScidIl2rgtmlWji/Szj), adult (>8 week old) male mice obtained from the Sidney Kimmel Comprehensive Cancer Center (SKCCC) Animal Core Facility are described previously (Isaacs 2013; Brennen et al. JCI Insight. 2021, 6(8):e146827; Zhu et al. Oncogene 2020, 39(45): 6935-6949). […] In vitro growth curves were determined as described (Isaacs 2013). In vivo growth response to oral daily TasQ (10 mg/kg/d) of TRAMP-C2 mouse prostate cancers was evaluated in C57BL/6J syngeneic wild type vs. NOX-2 vs. iNOS null male mice obtained from Jackson Laboratory (Bar Harbor, ME). Growth response to oral daily TasQ (10 mg/kg/d) of TRAMP-C2 and B6CaP mouse prostate cancers was also evaluated in S100A9 null C57BL′6J male mice obtained from Dmitry Gabrilovich (Wistar Institute). […] In vitro growth curves were determined as described (Isaacs 2013). Growth response to daily oral TasQ vs. ESATA-20 (both at 10 mg/kg/d) of Myc-CaP-CR mouse prostate cancer was evaluated in syngeneic FVB/NJ castrate male mice from Jackson Laboratory. […]

thymus = experiment: AHR agonist induced thymus regression in FVB male mice; type: in vivo, mouse
Description: To evaluate AHR agonist induced thymus regression, groups of five 4-week old FVB male mice from Jackson Laboratory were treated with either vehicle, Linomide, TasQ, or its analogs daily by orally gavage for 2 weeks and then the thymus removed and weighted.
as §1
This means that in the clinical setting, dose-escalation above 1 mg/d of TasQ as needed to reach this >2 μM blood level for optimal anti-cancer efficacy will also enhance unwanted off-target AHR induction. Therefore, a medicinal chemical approach was undertaken to identify third generation quinoline-3-carboxamide analogs with increased HDAC4 inhibition, but with reduced AHR agonism. The approach taken is based upon the earlier SPR analysis documenting that TasQ linked to the surface chip via its aniline-N is a potent binder of HDAC4. Thus, a series of quinoline-3-carboxamide analogs were synthesized focusing upon adduct changes at the aniline-N. These analogs were synthesized as described in Example 1, and were initially screened for their AHR agonist activity using the in vitro human cell-based ARE-driven luciferase reporter gene assay (Table 3).

mCRPC patients = conditions: human, in vivo; cited from earlier work
fl-HDAC4 (wild-type) = target: T2, fl-HDAC4 (wild-type) (Homo sapiens, UniProt P56524); experiment: SPR binding analysis TasQ / fl-HDAC4; conditions: compound at >30 μM in solution, Zn2+ present
T2 construct: Full-length (fl) [A.A. 1-1082] recombinant human histone deacetylase 4 (rhHDAC4) protein; FLAG (N); GST (given as 'with or without'); made in house; host or cells: HEK293-T
Description: Surface Plasmon Resonance (SPR) Binding Analysis. SPR analysis was performed on the Biacore 3000™ system using CM5 sensor chips, certified buffers (HBS-P—10 mM HEPES, 0.15 M NaCl, pH 7.4, containing 0.005% v/v Surfactant P; HBS-EP-HBS-P with 3 mM EDTA) and reagents for immobilization and surface regeneration from Biacore, GE Healthcare, Uppsala Sweden. Evaluation of sensorgrams was performed using the BIA-evaluation Software version 4.1 and GraphPad Prism 4. Buffer of protein reagents were changed to HBS-P on Zeba spin desalting columns (Thermo Scientific) prior to being used in SPR analysis (Isaacs 2013).
A. Binding of wild-type and mutant forms of HDAC4 to immobilized TasQ. TasQ (ABR-215050; mol wt 406.4) was dissolved as a 40 mM solution in water with 1.5 equivalents of NaOH. TasQ with an amino-linker [i.e. —(CH2)2O(CH2)2—NH2](ABR-225180) in amide nitrogen position was used for amine coupling on to a Biacore CM5 sensor chip. A 1 mg/mL solution of ABR-225180 in HBS-P buffer was prepared and immobilized on a CM5 chip by injection at a flow rate of 5 or 10 μL/min until a stable response level was reached. Interaction of various HDAC4 forms with immobilized TasQ was studied by injection over this surface in HBS-P buffer containing 10 or 20 μM ZnCl2. Bound HDAC4 was removed by a pulse of 3 mM EDTA in HBS-P or 0.5 to 6.25 mM NaOH in water. In a second series of experiments, the ability of TasQ in solution to displace this binding was studied by pre-incubation of HDAC4 with TasQ as competitor.
B. Binding of TasQ to immobilized HDAC4 and NCoR1. Different variants of HDAC4 (full-length wild-type and mutant forms and the truncated protein) and full-length NCoR1 were immobilized on a CM5 chip using random amine coupling. Briefly, proteins were dissolved in 10 mM sodium acetate buffer at pH 5.0 or 5.5 and immobilized to the aimed level using the standard protocol from GE Healthcare. Serially diluted TasQ in HBS-P buffer with 10 or 20 μM Zn was injected (for 2 or 3 min at a flow rate of 30 μl/min) either directly or after a 1st injection of 1 mM DTT to reduce cysteines in the zinc conformation site in HDAC4. Regeneration was made with a short pulse of HBS-EP.
To evaluate the conformational requirements for TasQ's binding to HDAC4, surface plasmon resonance (SPR) analysis was utilized. To maximize conformational flexibility, TasQ is immobilized onto the surface of a Biacore CM5 sensor chip via an amino-linker [i.e. —(CH2)2—O—(CH2)2—NH2] in its amide nitrogen position.
By comparison, Linomide even at >30 μM in solution binds only 10-15% of the immobilized fl-HDAC4 protein despite the presence of Zn^+2 (FIG. 14). […] The fact that the KD for binding of soluble TasQ to immobilized fl-HDAC4 is higher than the KD for binding of soluble fl-HDAC4 with immobilized TasQ is predictable. This is because the conformational dynamics of fl-HDAC4 protein immobilized on the chip are more restrictive due to the multiple random amine coupling than the conformational dynamics of TasQ immobilized via a single amino-linker.
To address this possibility, a competitive binding assay was developed based upon the ability of TasQ in solution to compete with immobilized TasQ on the SPR-chip for binding to fl-HDAC4.

T2 sequence (P56524 whole entry): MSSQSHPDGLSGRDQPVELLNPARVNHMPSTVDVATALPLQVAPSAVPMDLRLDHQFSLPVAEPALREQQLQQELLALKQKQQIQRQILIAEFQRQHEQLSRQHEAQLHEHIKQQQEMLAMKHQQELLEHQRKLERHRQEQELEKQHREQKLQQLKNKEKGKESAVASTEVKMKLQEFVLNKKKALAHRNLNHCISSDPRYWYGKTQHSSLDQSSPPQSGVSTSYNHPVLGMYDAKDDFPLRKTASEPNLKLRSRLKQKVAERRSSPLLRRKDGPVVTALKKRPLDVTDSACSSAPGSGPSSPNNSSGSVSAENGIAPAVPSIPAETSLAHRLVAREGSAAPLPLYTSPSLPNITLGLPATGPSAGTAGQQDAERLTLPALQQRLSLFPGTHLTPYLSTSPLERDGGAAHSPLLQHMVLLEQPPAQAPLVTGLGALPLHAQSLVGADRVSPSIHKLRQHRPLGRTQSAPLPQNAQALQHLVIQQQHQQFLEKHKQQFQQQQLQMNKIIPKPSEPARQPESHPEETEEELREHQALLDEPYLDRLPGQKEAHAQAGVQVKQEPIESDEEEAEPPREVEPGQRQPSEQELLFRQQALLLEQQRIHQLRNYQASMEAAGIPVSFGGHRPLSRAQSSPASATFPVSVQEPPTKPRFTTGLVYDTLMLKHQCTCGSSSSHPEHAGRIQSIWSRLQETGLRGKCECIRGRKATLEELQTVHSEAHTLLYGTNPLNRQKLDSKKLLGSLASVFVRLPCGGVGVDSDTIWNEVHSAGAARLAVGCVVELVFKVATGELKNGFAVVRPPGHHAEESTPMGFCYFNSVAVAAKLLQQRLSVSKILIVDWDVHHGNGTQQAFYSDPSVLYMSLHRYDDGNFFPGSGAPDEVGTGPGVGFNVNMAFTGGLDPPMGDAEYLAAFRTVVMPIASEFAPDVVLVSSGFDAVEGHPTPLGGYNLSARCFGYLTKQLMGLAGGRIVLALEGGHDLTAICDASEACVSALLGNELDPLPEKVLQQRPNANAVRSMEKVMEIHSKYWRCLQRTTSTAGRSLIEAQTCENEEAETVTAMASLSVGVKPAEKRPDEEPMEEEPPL

Row | EC50 [2] [nM] | Compound | CWR22-RH Tumor Growth (% inhibition +/− SD) [1] | growth inhibitor (GI) activity on CWR22-RH xenografts (SAR summary) [1] | other results
1 | > 50000 | C[C@]12CC[C@H](O)CC1=CC[C@@H]1[C@@H]2CC[C@]2(C)C(c3cccnc3)=CC[C@@H]12 [Abiraterone] | <10% | – | –
2 | – | c1ccc2c(c1)cc1ccc3cccc4ccc2c1c34 [Benzo[α]pyrene, benzo[a]pyrene] | <10% | – | inhibition of growth of LvCaP-3 xenografts at the end of study [3]: completely lacks therapeutic efficacy; thymus weight (thymus; 10 mg/kg/d oral for 14 days): 27 ± 8 mg; Thymus Regression (% decrease weight +/− SD) (thymus; mice treated orally for 2 weeks, 10 mg/kg/d, n = 5/group): 51 +/− 7%
3 | > 100000 | COC(=O)c1c(O)c2c(OC)cccc2n(C)c1=O [ESATA-2] | – | no GI activity | –
4 | 0.5 | COc1cccc2c1c(O)c(C(=O)Nc1ccc(C(F)(F)F)cc1)c(=O)n2C [ESATA-4] | 86 +/− 9% | high GI activity | –
5 | 300 | COc1cccc2c1CC(C(=O)N(C)c1ccc(C(F)(F)F)cc1)C(=O)N2C (stereo not shown) [ESATA-5] | – | – | –
6 | 50 | CCCCCCCN(C(=O)c1c(O)c2c(OC)cccc2n(C)c1=O)c1ccc(C(F)(F)F)cc1 [ESATA-11] | – | – | –
7 | 1100 | COc1cccc2c1c(O)c(C(=O)N(CCOCc1ccccc1)c1ccc(C(F)(F)F)cc1)c(=O)n2C [ESATA-14] | <10% | no GI activity | –
8 | 10700 | COc1cccc2c1c(O)c(C(=O)N(Cc1ccccc1)c1ccc(C(F)(F)F)cc1)c(=O)n2C [ESATA-18] | 50 +/− 18% | – | –
9 | 12000 | COc1cccc2c1c(O)c(C(=O)N(c1ccc(C(F)(F)F)cc1)C1CCC(C(F)(F)F)CC1)c(=O)n2C (stereo not shown) [ESATA-22] | <10% | no GI activity | –
10 | 800 | COc1cccc2c1c(O)c(C(=O)N/N=C/c1ccc(C(F)(F)F)cc1)c(=O)n2C [ESATA-24] | – | – | –
11 | 10500 | CCOc1c(C(=O)N(c2ccc(C(F)(F)F)cc2)C2CCCCC2)c(=O)n(C)c2cccc(OC)c12 [ESATA-25] | <10% | no GI activity | –
12 | > 50000 | COc1cccc2c1c(OCCNC(=O)OC(C)(C)C)c(C(=O)N(c1ccc(C(F)(F)F)cc1)C1CCCCC1)c(=O)n2C [ESATA-26] | <10% | no GI activity | –
13 | 850 | COc1cccc2c1c(O)c(C(=O)N(c1ccccc1)C(C)C)c(=O)n2C [ESATA-27] | <10% | – | –
14 | 1300 | COc1cccc2c1c(O)c(C(=O)N(c1ccccc1)C1CCCCC1)c(=O)n2C [ESATA-28] | <10% | – | –
15 | 1400 | COc1cccc2c1c(O)c(C(=O)N(c1ccc(C(F)(F)F)cc1)C(C)C)c(=O)n2C [ESATA-30] | <10% | no GI activity | –
16 | – | CN(C(=O)c1c(O)c2ccccc2n(C)c1=O)c1ccccc1 [Linomide, roquinimex] | – | – | adverse events in Phase III clinical trials (mCRPC patients): several cases of pericarditis and neuropathy; fraction of the immobilized fl-HDAC4 protein bound (fl-HDAC4 (wild-type)): 10-15%
